Patent US11155539B2, “4-pyridinylmethyl-morpholine derivatives and the use thereof as medicament” (Boehringer Ingelheim International GmbH, priority 2018, dated 2021)

Assays:
MDR1 (P-gp) = target: T1, MDR1 (P-gp) (Homo sapiens, UniProt P08183); assay: MDCK assay P-gp (permeability across MDCK-MDR1 monolayers); type: in vitro ADME; conditions: for Papp A→B at 2 h: apical-to-basal, MDCK-MDR1 monolayers, pH 7.4; for efflux ratio at 2 h: pH 7.4, Papp (b-a) divided by Papp (a-b), MDCK-MDR1, read-out: efflux ratio PEBA/PEAB
T1 construct: expressed in transfected cells; host or cells: MDCKII (Madin-Darby canine kidney)
T1 sequence (P08183 whole entry): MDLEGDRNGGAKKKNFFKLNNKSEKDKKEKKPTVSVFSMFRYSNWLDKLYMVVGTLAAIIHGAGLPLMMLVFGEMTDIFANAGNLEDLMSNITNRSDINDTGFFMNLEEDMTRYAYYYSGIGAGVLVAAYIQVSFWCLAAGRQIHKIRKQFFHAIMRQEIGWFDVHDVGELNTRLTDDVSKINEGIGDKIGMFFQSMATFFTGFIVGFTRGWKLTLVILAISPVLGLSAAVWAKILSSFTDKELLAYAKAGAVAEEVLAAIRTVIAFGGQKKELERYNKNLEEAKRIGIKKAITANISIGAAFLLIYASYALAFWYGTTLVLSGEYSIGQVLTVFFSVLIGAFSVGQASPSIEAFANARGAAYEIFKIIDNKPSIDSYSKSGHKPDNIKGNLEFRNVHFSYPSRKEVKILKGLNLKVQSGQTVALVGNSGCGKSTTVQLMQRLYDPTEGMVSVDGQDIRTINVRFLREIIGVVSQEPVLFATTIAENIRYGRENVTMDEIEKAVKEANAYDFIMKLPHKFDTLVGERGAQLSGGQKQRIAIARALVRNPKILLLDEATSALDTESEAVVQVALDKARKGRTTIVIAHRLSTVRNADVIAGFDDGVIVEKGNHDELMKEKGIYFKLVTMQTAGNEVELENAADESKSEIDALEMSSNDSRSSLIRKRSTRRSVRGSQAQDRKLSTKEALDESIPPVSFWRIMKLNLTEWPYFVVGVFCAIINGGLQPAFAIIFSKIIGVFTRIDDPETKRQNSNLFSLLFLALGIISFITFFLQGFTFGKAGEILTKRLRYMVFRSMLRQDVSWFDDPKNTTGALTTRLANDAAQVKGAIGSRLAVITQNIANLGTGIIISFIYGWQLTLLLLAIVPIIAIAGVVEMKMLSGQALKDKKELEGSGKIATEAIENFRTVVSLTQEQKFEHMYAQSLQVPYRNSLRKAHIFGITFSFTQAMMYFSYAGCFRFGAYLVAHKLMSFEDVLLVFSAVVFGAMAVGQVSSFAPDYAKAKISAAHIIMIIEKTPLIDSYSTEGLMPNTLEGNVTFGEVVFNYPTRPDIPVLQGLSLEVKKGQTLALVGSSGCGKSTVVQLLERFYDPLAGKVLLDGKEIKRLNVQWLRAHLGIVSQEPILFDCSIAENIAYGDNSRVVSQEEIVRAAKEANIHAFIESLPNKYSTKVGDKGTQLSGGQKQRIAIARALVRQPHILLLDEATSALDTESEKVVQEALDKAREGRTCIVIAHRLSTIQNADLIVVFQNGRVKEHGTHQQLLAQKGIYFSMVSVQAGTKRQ
Protocol: The MDCK assays provide information on the potential of a compound to pass the blood brain barrier. Permeability measurements across polarized, confluent MDCK-MDR1 cell monolayers grown on permeable filter supports are used as an in vitro absorption model: apparent permeability coefficients (PE) of the compounds across the MDCK-MDR1 cell monolayers are measured (pH 7.4, 37° C.) in apical-to-basal (AB) and basal-to-apical (BA) transport direction. The AB permeability (PEAB) represents drug absorption from the blood into the brain and the BA permeability (PEBA) drug efflux from the brain back into the blood via both, passive permeability as well as active transport mechanisms mediated by efflux and uptake transporters that are expressed on the MDCK-MDR1 cells, predominantly by the overexpressed human MDR1. Identical or similar permeabilities in both transport directions indicate passive permeation (PEBA/PEAB≤1), vectorial permeability points to additional active transport mechanisms. Higher PEBA than PEAB (PEBA/PEAB>5) indicates the involvement of active efflux mediated by MDR1, which might compromise the goal to achieve sufficient brain exposure. Therefore, this assay provides valuable support for selection of compounds applicable for further in vivo testing. High permeability not limited by efflux at the blood brain barrier is a favorable characteristic for compounds that are to be used for drugs acting primarily in the CNS.
Apparent permeability coefficients (Papp) of the compounds across the MDCK-MDR1 monolayers (MDCKII cells transfected with human MDR1 cDNA expression plasmid) are measured in apical-to-basal (AB) and basal-to-apical (BA) direction. MDCK-MDR1 cells (6×10^5 cells/cm^2) are seeded on filter inserts (Corning, Transwell, polycarbonate, 0.4 μm pore size) and cultured for 9 to 10 days. Compounds dissolved in DMSO stock solution (1-20 mM) are diluted with HTP-4 aqueous buffer (128.13 mM NaCl, 5.36 mM KCl, 1 mM MgSO4, 1.8 mM CaCl2, 4.17 mM NaHCO3, 1.19 mM Na2HPO4, 0.41 mM NaH2PO4, 15 mM HEPES, 20 mM glucose, pH 7.4) supplemented with 0.25% BSA to prepare the transport solutions (final concentration: 1 or 10 μM, final DMSO<=0.5%). The transport solution is applied to the apical or basolateral donor side for measuring A-B or B-A permeability, respectively. The receiver side contains HTP-4 buffer supplemented with 0.25% BSA. Samples are collected at the start and end of experiment from the donor and at various time intervals for up to 2 hours also from the receiver side for concentration measurement by HPLC-MS/MS (RapidFire High-throughput MS System (Agilent) coupled to QTrap 6500 (AB Sciex) or TSQ Vantage (Thermo Scientific)). Sampled receiver volumes are replaced with fresh receiver solution. Efflux ratio is calculated dividing the Papp (b-a) values by the Papp (a-b) values.

Nav1.6 = Nav1.6 (Homo sapiens, UniProt Q9UQD0); assay: Nav 1.6 inhibition, IonWorks Quattro electrophysiology; type: cell-based; conditions: for inhibition at 1 µM / inhibition at 5 µM: normalized to vehicle control (0%) and maximal inhibition control (100%)
Chain of Nav1.6 (Q9UQD0 whole entry): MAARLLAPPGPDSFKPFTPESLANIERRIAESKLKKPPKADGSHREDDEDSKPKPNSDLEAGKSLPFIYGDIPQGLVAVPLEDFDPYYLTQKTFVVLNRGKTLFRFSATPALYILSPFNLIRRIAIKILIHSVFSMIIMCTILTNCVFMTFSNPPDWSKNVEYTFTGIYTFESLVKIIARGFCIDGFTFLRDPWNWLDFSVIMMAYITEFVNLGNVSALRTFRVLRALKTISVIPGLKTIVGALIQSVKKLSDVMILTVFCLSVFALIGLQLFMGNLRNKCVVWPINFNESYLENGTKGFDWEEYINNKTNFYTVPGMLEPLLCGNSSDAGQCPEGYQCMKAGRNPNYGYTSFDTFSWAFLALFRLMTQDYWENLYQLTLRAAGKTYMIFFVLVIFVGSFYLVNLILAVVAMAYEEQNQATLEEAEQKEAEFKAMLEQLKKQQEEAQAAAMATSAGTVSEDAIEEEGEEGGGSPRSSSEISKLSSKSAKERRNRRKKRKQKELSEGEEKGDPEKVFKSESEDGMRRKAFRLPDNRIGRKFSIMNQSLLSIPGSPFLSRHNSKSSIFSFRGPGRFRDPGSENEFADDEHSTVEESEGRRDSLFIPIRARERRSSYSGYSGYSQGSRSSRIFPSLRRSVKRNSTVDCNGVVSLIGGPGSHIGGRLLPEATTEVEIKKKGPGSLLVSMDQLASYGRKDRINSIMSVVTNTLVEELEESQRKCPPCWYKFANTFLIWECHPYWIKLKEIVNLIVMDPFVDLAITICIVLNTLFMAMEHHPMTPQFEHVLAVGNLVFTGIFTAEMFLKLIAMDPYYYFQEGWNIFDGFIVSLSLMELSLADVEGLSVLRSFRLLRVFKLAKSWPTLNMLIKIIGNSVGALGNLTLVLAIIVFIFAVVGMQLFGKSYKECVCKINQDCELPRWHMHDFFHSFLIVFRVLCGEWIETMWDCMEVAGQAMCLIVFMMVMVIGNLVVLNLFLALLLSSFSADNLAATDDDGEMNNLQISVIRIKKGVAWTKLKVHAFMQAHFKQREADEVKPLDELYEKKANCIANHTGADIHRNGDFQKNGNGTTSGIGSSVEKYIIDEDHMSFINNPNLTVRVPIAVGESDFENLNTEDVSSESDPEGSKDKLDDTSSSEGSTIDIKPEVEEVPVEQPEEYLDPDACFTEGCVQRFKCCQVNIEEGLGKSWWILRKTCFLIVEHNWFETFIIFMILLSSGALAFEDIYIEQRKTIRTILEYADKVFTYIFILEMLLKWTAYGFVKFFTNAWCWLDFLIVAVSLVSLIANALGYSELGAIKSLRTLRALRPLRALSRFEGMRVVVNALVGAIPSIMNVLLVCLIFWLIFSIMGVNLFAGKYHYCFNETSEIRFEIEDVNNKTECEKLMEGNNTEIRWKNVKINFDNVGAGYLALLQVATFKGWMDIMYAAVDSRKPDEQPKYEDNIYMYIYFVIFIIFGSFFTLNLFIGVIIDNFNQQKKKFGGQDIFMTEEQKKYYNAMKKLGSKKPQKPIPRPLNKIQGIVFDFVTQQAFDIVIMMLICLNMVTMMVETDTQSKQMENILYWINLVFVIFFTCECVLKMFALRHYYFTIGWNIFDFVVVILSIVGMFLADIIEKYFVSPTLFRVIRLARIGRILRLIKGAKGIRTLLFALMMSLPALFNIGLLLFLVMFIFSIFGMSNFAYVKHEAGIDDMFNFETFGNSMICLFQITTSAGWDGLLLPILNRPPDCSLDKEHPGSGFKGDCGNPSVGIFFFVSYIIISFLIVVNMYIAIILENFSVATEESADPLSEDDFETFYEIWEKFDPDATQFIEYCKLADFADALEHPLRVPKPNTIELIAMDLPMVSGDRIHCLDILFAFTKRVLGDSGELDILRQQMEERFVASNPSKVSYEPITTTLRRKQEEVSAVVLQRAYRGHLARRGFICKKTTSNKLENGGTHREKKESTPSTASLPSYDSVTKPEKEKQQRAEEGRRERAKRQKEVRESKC
How it was run: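 Human Nav1.6 currents recorded on IonWorks Quattro with amphotericin B (200 μg/ml) perforated access; compounds at final 1 and 5 μM in 0.3% DMSO. Cells held at −120 mV, prepulsed to 0 mV for 2500 ms, 10 ms recovery at −120 mV, then 20 ms test pulse to 0 mV; values are normalized percentage inhibition.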

CNC(=O)[C@@H]1CN(Cc2ccc(Oc3ccccc3Cl)nc2)CCO1 [Example 17]
Papp A→B at 2 h (MDR1 (P-gp)): 67 ×10⁻⁶ cm/s | efflux ratio at 2 h (MDR1 (P-gp)): 0.6 | inhibition at 1 µM (Nav1.6): 22% | inhibition at 5 µM (Nav1.6): -4.3%

CNC(=O)[C@@H]1CN(Cc2ccc(Oc3ccccc3F)nc2)CCO1 [Example 19]
Papp A→B at 2 h (MDR1 (P-gp)): 75 ×10⁻⁶ cm/s | efflux ratio at 2 h (MDR1 (P-gp)): 0.7 | inhibition at 1 µM (Nav1.6): 5.2% | inhibition at 5 µM (Nav1.6): -6.3% | significant inhibition of the Nav 1.6 channel (in words) (Nav1.6; at 5 μM): not showing any significant inhibition

CNC(=O)[C@@H]1CN(Cc2ccc(Oc3ccc(C)cc3)nc2)CCO1 [Example 29]
Papp A→B at 2 h (MDR1 (P-gp)): 58 ×10⁻⁶ cm/s | efflux ratio at 2 h (MDR1 (P-gp)): 0.8 | inhibition at 1 µM (Nav1.6): 1.8% | inhibition at 5 µM (Nav1.6): 3%

CNC(=O)[C@@H]1CN(Cc2ccc(Oc3ccc(F)cc3)cn2)CCO1 [Example 30]
Papp A→B at 2 h (MDR1 (P-gp)): 86 ×10⁻⁶ cm/s | efflux ratio at 2 h (MDR1 (P-gp)): 0.5 | inhibition at 1 µM (Nav1.6): 7.6% | inhibition at 5 µM (Nav1.6): 6.8%
